US11548925B2, “CACNA1H-derived tumor antigen polypeptide and use thereof” (Genoimmune Therapeutics Co., Ltd., priority 2016, dated 2023)

Columns and labels:
CD8+ T cells [1] = test: ELISPOTs detection of IFN-γ secretion by peptide-specific CD8+ T cells; type: cell-based, human; conditions: for Conclusion (immunogenicity): ELISPOTs; for Number of spots in the mutant peptide group / Number of spots in the wild-type peptide group: T cells activated by the listed peptide, 20 h; for Number of spots in the mutant peptide group: T2 cells loaded with TLISSLMPI; for Number of spots in the wild-type peptide group: T2 cells loaded with TLISSLRPI
From the text: In this example, a ELISPOTs detection kit (Cat. No.: 3420-4AST-10, MABTECH) was used to verify the activation of an immune response of CD8+ T cells by the peptides of the present invention.
Principle of the ELISPOTs detection method is as follows: CD8+ T cells can specifically recognize the complex of HLA-A0201 and a peptide. The population of T cells recognizing the complex of the peptide and HLA-A0201 is varying, depending on the peptide sequence. Since T2 cells express HLA-A0201, CD8+ T cells can specifically recognize the T2 cells loaded with a peptide. After specific recognition of the complex of HLA-A0201 and the peptide, peptide-specific CD8+ T cells can be activated again to secrete IFN-γ interferon. The IFN-γ interferon secreted by the activated CD8+ T cells can be captured by antibodies on the ELISPOTs plate. Finally, the enzyme-conjugated antibody that recognizes IFN-γ can degrade the substrate through the enzyme conjugated thereto and develop color, eventually producing spots. The number of spots represents the number of cells that are activated to secrete IFN-γ interferon.
The cultured cells from Example 3 were added, along with T2 cells loaded with the mutant peptide […] (SEQ ID NO: 2) of the present invention and the wild-type peptide […] (SEQ ID NO: 1), respectively, into ELISPOTs plates, and cultured for 20 h, and then a ELISPOTs detection was performed (see the kit instruction). Finally, the spots produced by the ELISPOTs detection were counted.
The peptide was determined to have immunogenicity when the number of spots of the tested peptide/the number of spots of an unrelated peptide>2; that is, if the number of spots caused by the tested peptide is more than twice than that of an unrelated peptide, the tested peptide is determined to have immunogenicity.

T2 cells = test: LDH release assay, killing of peptide-loaded T2 target cells by CD8+ T cells; type: cell-based, human; conditions: 4 h
Method: The cells cultured in Example 3 were co-cultured with T2 cells loaded with the mutant peptides of the present invention or the wild-type peptide or without a peptide. A maximum release well, a volume correction well, a medium control well, a spontaneous release well and control wells for example at different effector-to-target ratios (ratios of T cells to T2 cells) were set in this experiment. Three replicate wells were set for each group. After 4 h, 50 μl of the co-culture supernatant was taken out and added to 50 μl of LDH substrate mixture to catalyze the reaction of LDH substrate. Finally, the plates were read at a wavelength of 490 nm, with a reference wavelength of 680 nm, and the killing activity against target cells T2 was calculated based on the control wells.
The formula for calculating the killing activity is: Killing efficiency (%)=(test well−spontaneous release of effector cells−spontaneous release of target cells+medium well)/(maximum release of target cells−volume correction well−spontaneous release of target cells+medium well)×100%

CD8+ T cells [2] = test: ELISPOTs detection of IFN-γ secretion by peptide-specific CD8+ T cells; type: cell-based, human; conditions: ratio of spot numbers; >2 immunogenic
[3] = test system: H2087-TLISSLMPI (SEQ ID NO: 2) subcutaneous tumor; test: DC vaccine infected with recombinant lentivirus containing peptide gene in H2087-[…] tumor model; type: in vivo, NOD/SCID mice; conditions: DC infected with lentivirus carrying peptide gene, 2 injections
From the text: The following DNA sequences were synthesized: “[…]” (SEQ ID NO: 8), encoding the wild-type peptide […] (SEQ ID NO: 1); “[…]” (SEQ ID NO: 9), encoding the mutant peptide […] (SEQ ID NO: 2); “[…]” (SEQ ID NO: 10), encoding the SEQ ID NO: 2 […]'s variant peptide […] (SEQ ID NO: 3); “[…]” (SEQ ID NO: 11), encoding the SEQ ID NO: 2 […]'s variant peptide […] (SEQ ID NO: 4); “[…]” (SEQ ID NO: 12), encoding the SEQ ID NO: 2 […]'s variant peptide […] (SEQ ID NO: 5); “[…]” (SEQ ID NO: 13), encoding the SEQ ID NO: 2 […]'s variant peptide […] (SEQ ID NO: 6); and “[…]” (SEQ ID NO: 14), encoding the SEQ ID NO: 2_[…]'s variant peptide […] (SEQ ID NO: 7). The wild-type peptide […] (SEQ ID NO: 1), the mutant peptide […] (SEQ ID NO: 2) and the mutant peptide SEQ ID NO: 2 […]'s variant peptides were constructed into the lentiviral vector pHBLV-Puro, respectively, to name as pHBLV-Puro-[…] (SEQ ID NO: 1), pHBLV-Puro-[…] (SEQ ID NO: 2), pHBLV-Puro-[…] (SEQ ID NO: 3), pHBLV-Puro-[…] (SEQ ID NO: 4), pHBLV-Puro-[…] (SEQ ID NO: 5), pHBLV-Puro-[…] (SEQ ID NO: 6) and pHBLV-Puro-[…] (SEQ ID NO: 7), respectively. The seven lentiviral constructs were co-transfected into 293T cells with helper plasmids pSPAX2 and pMD2G for packaging, and lentiviruses of the wild-type peptide […] (SEQ ID NO: 1), the mutant peptide […] (SEQ ID NO: 2) and the mutant peptide's variant peptides were obtained.
600-900 ml of anticoagulated peripheral blood was collected from healthy volunteers for isolating peripheral blood mononuclear cells (PBMCs) via Ficoll. Cells were collected for use. 2×10^7 PBMCs per 0.5 ml was intraperitoneally injected into each of 300 NOD SCID mice without immune leakage to perform human immune reconstitution in NOD SCID mice. […]
The human non-small cell lung adenocarcinoma cell line H2087-[…] […] The long diameter a and the short diameter b of the tumor were measured with a vernier caliper every 2-3 days and the size of the tumor was calculated as a*b*b/2. The mice and tumors were weighed and recorded every day. […] The tumor volume and the survival rate of mice were recorded every 2 days. […]

[4] = effector-to-target ratio 1:1, target T2 loaded with TLISSLMPI
[5] = effector-to-target ratio 1:1, target T2 loaded with wild-type TLISSLRPI
[6] = effector-to-target ratio 10:1, target T2 loaded with TLISSLMPI
[7] = effector-to-target ratio 10:1, target T2 loaded with wild-type TLISSLRPI

Sequence: TLISSLMPL
- Conclusion (immunogenicity) (CD8+ T cells [1]): immunogenic
- Number of spots in the mutant peptide group (CD8+ T cells [1]): 317
- Number of spots in the wild-type peptide group (CD8+ T cells [1]): 37
- Killing efficiency (T2 cells; [4]): 8.23%
- Killing efficiency (T2 cells; [5]): 3.12%
- Killing efficiency (T2 cells; [6]): 39.66%
- Killing efficiency (T2 cells; [7]): 5.71%
- Fold (tested/wild-type) (CD8+ T cells [2]): 8.57

Sequence: TLISSLMPV
- Conclusion (immunogenicity) (CD8+ T cells [1]): immunogenic
- Number of spots in the mutant peptide group (CD8+ T cells [1]): 325
- Number of spots in the wild-type peptide group (CD8+ T cells [1]): 41
- Killing efficiency (T2 cells; [4]): 8.56%
- Killing efficiency (T2 cells; [5]): 2.57%
- Killing efficiency (T2 cells; [6]): 43.82%
- Killing efficiency (T2 cells; [7]): 4.73%
- Fold (tested/wild-type) (CD8+ T cells [2]): 7.93

Sequence: TLISSLRPI [wild-type CACNA1H peptide used as comparison, reference compound]
- Tumor-suppressing effect [3]: no effect on this tumor

Sequence: TMISSLMPI
- Conclusion (immunogenicity) (CD8+ T cells [1]): immunogenic
- Number of spots in the mutant peptide group (CD8+ T cells [1]): 321
- Number of spots in the wild-type peptide group (CD8+ T cells [1]): 27
- Killing efficiency (T2 cells; [4]): 8.33%
- Killing efficiency (T2 cells; [5]): 2.85%
- Killing efficiency (T2 cells; [6]): 41.16%
- Killing efficiency (T2 cells; [7]): 5.13%
- Fold (tested/wild-type) (CD8+ T cells [2]): 11.88

Sequence: TMISSLMPL
- Conclusion (immunogenicity) (CD8+ T cells [1]): immunogenic
- Number of spots in the mutant peptide group (CD8+ T cells [1]): 338
- Number of spots in the wild-type peptide group (CD8+ T cells [1]): 39
- Killing efficiency (T2 cells; [4]): 9.12%
- Killing efficiency (T2 cells; [5]): 3.13%
- Killing efficiency (T2 cells; [6]): 45.23%
- Killing efficiency (T2 cells; [7]): 5.83%
- Fold (tested/wild-type) (CD8+ T cells [2]): 8.67

Sequence: TMISSLMPV
- Conclusion (immunogenicity) (CD8+ T cells [1]): immunogenic
- Number of spots in the mutant peptide group (CD8+ T cells [1]): 345
- Number of spots in the wild-type peptide group (CD8+ T cells [1]): 35
- Killing efficiency (T2 cells; [4]): 9.32%
- Killing efficiency (T2 cells; [5]): 3.51%
- Killing efficiency (T2 cells; [6]): 47.35%
- Killing efficiency (T2 cells; [7]): 6.31%
- Fold (tested/wild-type) (CD8+ T cells [2]): 9.86
